# Experimental data from patent publication US7858044B2, “Multi-well plate providing a high-density storage and assay platform” (Nexus Biosystems, Inc., priority 2003, dated 2010).
# Target: recombinant human CYP 3A4 (Homo sapiens, UniProt P08684)
# Test: CYP 3A4 isozyme inhibition screen with fluorogenic substrate BOMR in 3456-well plate
# Conditions: concentration series
# Chain of recombinant human CYP 3A4 (P08684 whole entry): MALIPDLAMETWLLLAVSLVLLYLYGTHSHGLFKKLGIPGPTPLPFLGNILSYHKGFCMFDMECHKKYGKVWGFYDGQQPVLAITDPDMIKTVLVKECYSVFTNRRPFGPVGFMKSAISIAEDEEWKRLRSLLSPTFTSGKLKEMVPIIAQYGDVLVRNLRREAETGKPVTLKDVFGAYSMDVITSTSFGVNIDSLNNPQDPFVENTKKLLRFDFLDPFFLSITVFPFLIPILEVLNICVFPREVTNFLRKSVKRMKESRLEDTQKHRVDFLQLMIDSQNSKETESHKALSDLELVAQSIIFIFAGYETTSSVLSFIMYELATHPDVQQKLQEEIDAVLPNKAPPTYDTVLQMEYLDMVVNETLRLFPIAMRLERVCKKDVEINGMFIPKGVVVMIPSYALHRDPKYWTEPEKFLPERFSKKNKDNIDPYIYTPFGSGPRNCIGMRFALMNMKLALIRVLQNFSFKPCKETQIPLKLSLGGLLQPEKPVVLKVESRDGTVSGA
smiles,measurement,value
C[C@]12CC[C@H]3[C@@H](CCC4=CC(=O)CC[C@@]43C)[C@@H]1CC[C@@H]2O [testosterone],Potentiation of CYP 3A4 isozyme,Potentiation
